Drawing on ChEMBL document CHEMBL1201862, “PubChem BioAssay data set” (2004), this text covers IC50, EC50 and AC50 for 4 compounds.

The target of test [1] is T1, Tyrosine-protein phosphatase non-receptor type 7 (Homo sapiens, UniProt P35236).
T1 sequence (P35236 whole entry): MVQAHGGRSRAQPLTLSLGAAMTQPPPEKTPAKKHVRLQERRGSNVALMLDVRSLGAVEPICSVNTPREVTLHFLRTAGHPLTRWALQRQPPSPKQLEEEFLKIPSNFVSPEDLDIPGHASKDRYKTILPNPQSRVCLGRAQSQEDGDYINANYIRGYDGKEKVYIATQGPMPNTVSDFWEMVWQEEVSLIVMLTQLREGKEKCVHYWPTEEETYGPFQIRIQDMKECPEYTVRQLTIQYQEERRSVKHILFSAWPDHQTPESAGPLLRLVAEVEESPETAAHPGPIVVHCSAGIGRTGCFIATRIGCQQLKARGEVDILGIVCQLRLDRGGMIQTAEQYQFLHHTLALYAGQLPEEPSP
The format is functional.

The target in test [2] is T2, RNA-binding protein pos-1 (Caenorhabditis elegans, UniProt G5EF15).
T2 sequence (G5EF15 whole entry): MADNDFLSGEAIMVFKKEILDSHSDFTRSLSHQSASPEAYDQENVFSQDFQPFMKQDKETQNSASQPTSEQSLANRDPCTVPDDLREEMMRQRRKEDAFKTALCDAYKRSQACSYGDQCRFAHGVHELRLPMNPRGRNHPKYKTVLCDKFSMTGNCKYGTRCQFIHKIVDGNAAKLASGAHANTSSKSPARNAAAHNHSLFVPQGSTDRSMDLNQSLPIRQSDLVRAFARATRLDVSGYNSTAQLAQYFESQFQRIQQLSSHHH
The test is described as follows: inhibitors of POS-1/mex-3 RNA binding, dose response, biochemical, fluorescence polarization (AID 1964).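 Further: purified POS-1 fused to maltose binding protein made in E. coli; potency of compounds blocking POS-1 binding to fluorescent RNA.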 On the technique in general: Fluorescence polarisation rises when a labelled molecule tumbles more slowly, as on binding a larger partner.

Test [3] concerns the target Glyceraldehyde-3-phosphate dehydrogenase (Homo sapiens, UniProt P04406).
Test [4] addresses T3, Zinc finger protein mex-5 (Caenorhabditis elegans, UniProt Q9XUB2).
T3 sequence (Q9XUB2 whole entry): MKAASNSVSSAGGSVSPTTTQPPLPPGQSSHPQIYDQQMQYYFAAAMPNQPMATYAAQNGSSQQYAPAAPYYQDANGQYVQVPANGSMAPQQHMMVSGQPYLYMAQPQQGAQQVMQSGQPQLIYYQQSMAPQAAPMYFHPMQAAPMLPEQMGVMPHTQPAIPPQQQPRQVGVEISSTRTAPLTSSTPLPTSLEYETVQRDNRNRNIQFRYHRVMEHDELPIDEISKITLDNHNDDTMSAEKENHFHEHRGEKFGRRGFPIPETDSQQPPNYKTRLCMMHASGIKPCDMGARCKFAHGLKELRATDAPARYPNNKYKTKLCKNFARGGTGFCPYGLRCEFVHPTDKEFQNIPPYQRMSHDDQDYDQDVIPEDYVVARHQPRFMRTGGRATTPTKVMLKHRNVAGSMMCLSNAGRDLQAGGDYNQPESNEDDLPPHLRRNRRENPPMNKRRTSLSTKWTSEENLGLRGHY
The test is described as follows: MEX-5/TCR-2 RNA interaction inhibitors, dose response, biochemical, C. elegans, fluorescence polarization (AID 1960).

Test [5] has as its target Heat shock cognate 71 kDa protein (Homo sapiens, UniProt P11142). Briefly: In Vitro Hsc70 Dose Response Fluorescence Polarization Assay. [Related pubchem assays: 1072 ].
Test [6] concerns the target Heat shock 70 kDa protein 1A (Homo sapiens, UniProt P0DMV8). Briefly: Hsp70 inhibitors, SAR follow-up, biochemical, fluorescence polarization (AID 1072).
For test [7], the target named is T4, Dual specificity protein phosphatase 6 (Rattus norvegicus, UniProt Q64346).
T4 sequence (Q64346 whole entry): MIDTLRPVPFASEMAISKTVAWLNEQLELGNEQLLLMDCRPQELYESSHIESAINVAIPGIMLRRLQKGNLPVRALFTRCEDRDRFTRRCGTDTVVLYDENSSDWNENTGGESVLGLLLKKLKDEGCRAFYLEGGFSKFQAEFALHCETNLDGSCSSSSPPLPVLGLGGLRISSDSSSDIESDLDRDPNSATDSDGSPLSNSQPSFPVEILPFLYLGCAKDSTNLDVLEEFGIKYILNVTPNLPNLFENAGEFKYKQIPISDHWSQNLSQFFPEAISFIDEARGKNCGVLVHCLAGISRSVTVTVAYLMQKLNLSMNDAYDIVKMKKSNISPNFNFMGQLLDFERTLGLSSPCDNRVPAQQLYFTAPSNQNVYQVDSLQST

Test [8] addresses T4, Dual specificity protein phosphatase 6. It counts as functional.
The target of test [9] is Luciferin 4-monooxygenase (Photinus pyralis, UniProt P08659). The test is described as follows: firefly luciferase enzyme inhibitors, dose response, biochemical, luminescence (AID 1891).
Sequence of Luciferin 4-monooxygenase (P08659 whole entry): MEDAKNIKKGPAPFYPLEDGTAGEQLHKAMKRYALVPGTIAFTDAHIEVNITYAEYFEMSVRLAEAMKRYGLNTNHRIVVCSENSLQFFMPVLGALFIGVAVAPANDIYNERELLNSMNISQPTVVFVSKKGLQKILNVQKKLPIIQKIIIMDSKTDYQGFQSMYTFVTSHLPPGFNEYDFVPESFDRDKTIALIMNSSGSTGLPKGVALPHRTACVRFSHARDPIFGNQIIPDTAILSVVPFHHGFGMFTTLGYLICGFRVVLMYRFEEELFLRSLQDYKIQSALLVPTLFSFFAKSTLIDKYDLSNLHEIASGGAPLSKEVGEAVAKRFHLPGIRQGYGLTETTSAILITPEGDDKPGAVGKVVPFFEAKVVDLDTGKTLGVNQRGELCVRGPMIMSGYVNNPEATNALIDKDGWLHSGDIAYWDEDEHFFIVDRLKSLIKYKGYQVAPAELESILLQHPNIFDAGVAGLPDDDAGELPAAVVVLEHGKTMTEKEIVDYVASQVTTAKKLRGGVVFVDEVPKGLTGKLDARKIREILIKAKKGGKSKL
Test [10] can be described thus: Luminescence Cell-Based Dose Confirmation HTS to Identify Inhibitors of Platelet Dense Granule Release. [Related pubchem assays: 1663 (Primary HTS), 1678 (Summary of Project)]. The format is functional.
Test [11] is described as follows: inhibitors of SFLLRN-triggered platelet P-selectin exposure, dose response, cell-based, fluorescence, flow cytometry, human platelets (AID 2511). It counts as functional. Background: Flow cytometry measures light scatter and fluorescence of single cells or particles in a stream.
Test [12] can be described thus: SFLLRN-induced P-Selectin Platelet Surface Expression Measured in Cell-Based System Using Flow Cytometry - 2016-03_Inhibitor_Dose_DryPowder_Activity_Set3. [Related pubchem assays (depositor defined):AID1678]. The format is functional.
Test [13] is described as follows: blockers of SFLLRN-triggered platelet ATP secretion – cell-based, human platelets, luminescence, dry powder, dose response (AID 493100). It counts as functional.
A short description of test [14]: Luminescence Cell-Based Dose Response Follow up to Identify Inhibitors of Platelet Dense Granule Release. [Related pubchem assays (depositor defined):AID1663, AID1678, AID1889, AID2519]. The format is functional.
Test [15] is described as follows: inhibitors of firefly luciferase expression or activity, dose response, H4 neuroglioma cells, luminescence (AID 1990). The format is functional, cell-based.
Test [16] is described as follows: Luminescence Cell-Based Dose Response HTS to Identify Inhibitors of 5'UTR Stem-Loop Driven Prion Protein mRNA Translation in H4 Neuroglioblastoma Cells. [Related pubchem assays: 1827 (Project Summary), 1813 (Primary HTS)]. It counts as functional.
Test [17] is described as follows: inhibitors of SNCA 5'UTR-driven reporter translation, confirmation, H4 neuroglioma cells, luminescence (AID 1988). It counts as functional, cell-based.
Test [18] can be described thus: Luminescence Cell-Based Dose Retest to Confirm Inhibitors of Cancer Stem Cells. [Related pubchem assays (depositor defined):AID2717, AID2721]. Particulars: Homo sapiens. It counts as functional.
Test [19] addresses T5, Microphthalmia-associated transcription factor (Homo sapiens, UniProt O75030).
T5 sequence (O75030 whole entry): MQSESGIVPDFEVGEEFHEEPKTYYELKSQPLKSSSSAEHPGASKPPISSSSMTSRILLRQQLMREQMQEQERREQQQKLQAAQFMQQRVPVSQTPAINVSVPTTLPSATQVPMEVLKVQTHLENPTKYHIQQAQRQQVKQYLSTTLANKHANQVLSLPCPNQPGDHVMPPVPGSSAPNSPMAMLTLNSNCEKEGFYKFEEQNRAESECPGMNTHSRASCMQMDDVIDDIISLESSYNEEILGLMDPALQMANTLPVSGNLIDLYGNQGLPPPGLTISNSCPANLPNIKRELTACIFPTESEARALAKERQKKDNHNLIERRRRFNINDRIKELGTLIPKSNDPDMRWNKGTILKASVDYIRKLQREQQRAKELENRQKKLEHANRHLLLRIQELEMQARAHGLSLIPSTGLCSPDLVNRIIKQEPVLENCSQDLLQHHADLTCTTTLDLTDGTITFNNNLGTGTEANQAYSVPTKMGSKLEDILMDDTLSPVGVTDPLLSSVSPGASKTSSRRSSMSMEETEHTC
The test is described as follows: TRPM1 promoter luciferase signal decrease, dose response, MITF inhibitor project, cell-based, SK-MEL-5, cherry-picked, set 3 (AID 493073).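 Further: SK-MEL-5 melanoma cells with luciferase driven by the MITF target TRPM1 promoter.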 The format is functional.

The next test deals with A-375. Briefly: MITF: Counter assay: A375 proliferation Measured in Cell-Based System Using Plate Reader - 2084-03_Inhibitor_Dose_DryPowder_Activity. [Related pubchem assays (depositor defined):AID488944]. It counts as functional. Particulars: Homo sapiens.
The test system of another test is Escherichia coli. Briefly: microbe, parasite or virus in culture.

Molecules are shown by their SMILES. Activity calls are given as the source filed them.

Sequence of Heat shock cognate 71 kDa protein (P11142 whole entry): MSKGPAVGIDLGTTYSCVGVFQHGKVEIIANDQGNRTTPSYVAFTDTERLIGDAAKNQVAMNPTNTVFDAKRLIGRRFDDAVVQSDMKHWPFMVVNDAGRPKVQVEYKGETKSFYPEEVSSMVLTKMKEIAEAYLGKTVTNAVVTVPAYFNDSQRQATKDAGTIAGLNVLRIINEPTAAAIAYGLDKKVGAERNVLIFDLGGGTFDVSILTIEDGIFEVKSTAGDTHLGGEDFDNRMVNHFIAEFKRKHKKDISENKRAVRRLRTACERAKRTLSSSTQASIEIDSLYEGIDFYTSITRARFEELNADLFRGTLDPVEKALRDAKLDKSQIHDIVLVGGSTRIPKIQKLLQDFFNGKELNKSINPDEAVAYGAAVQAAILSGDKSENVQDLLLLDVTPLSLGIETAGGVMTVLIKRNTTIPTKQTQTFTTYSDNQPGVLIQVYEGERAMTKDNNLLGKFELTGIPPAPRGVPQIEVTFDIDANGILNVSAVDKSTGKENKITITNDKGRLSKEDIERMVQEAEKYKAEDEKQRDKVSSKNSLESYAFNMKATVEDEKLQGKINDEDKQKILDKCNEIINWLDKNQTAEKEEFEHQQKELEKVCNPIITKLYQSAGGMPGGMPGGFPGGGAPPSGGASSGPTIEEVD
Sequence of Glyceraldehyde-3-phosphate dehydrogenase (P04406 whole entry): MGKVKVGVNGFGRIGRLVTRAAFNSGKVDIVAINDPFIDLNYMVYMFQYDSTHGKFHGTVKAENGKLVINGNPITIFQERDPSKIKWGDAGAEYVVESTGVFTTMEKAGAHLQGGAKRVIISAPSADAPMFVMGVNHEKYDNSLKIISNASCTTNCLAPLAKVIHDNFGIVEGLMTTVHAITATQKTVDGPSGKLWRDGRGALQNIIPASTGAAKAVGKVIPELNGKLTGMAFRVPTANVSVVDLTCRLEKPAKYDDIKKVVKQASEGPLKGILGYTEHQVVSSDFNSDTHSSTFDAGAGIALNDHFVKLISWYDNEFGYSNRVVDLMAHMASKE
Sequence of Heat shock 70 kDa protein 1A (P0DMV8 whole entry): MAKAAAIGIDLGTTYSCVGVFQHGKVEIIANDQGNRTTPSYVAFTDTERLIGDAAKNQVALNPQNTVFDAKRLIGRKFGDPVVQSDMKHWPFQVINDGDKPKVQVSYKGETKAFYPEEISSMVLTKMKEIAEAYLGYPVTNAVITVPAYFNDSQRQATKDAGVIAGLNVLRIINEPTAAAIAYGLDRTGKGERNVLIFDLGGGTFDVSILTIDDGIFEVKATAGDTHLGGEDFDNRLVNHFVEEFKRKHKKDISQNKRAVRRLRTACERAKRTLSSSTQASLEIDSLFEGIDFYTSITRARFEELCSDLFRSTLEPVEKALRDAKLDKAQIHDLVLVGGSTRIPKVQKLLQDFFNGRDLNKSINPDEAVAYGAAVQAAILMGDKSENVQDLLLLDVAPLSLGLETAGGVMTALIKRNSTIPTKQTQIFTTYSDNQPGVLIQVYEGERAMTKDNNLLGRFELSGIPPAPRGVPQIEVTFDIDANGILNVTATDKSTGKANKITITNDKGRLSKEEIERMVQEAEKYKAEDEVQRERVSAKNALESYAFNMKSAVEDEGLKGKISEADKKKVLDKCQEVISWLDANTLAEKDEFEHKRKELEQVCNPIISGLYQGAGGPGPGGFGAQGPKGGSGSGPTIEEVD

In the case of `O=C(O)C1Nc2c(cccc2C(F)(F)F)C2C=CCC12` (stereo unspecified), the IC50 (in general, the concentration needed to halve the response being measured) in [1] was 5.06 µM (active); in [3], > 100 µM (not active); in test [5] it was 20.2 µM (active); in test [6] it was 8.36 µM (active); in test [7] it was 9.2 µM (active); in test [8], 7.72 µM (active). Moreover, the figures for the concentration for a half-maximal effect (EC50) in test [2] and in [4] were 26.7 µM (active) and 17.7 µM (active), respectively.
Regarding `CCCC(=O)Nc1cccc(NC(=O)c2ccccc2Br)c1`, the 50% effective concentration (EC50) (usually the midpoint of the concentration-response curve) in test [9] is > 112 µM (not active); in test [10] it was 1.87 µM (active); in test [11], < 300 nM (active); in [14] it was 4.87 µM (active). In addition, the AC50 (commonly the midpoint of the concentration-response curve, whichever way the signal moves) in [12] is < 156 nM (active); in test [13] it was 11.2 µM (active).
`CC(=O)Nc1sc(C)c(C)c1C(=O)OCC(=O)N(CC(C)C)c1c(N)n(Cc2ccccc2)c(=O)[nH]c1=O`: the concentration giving a half-maximal response (EC50) in [15] was 10.2 µM (active); in test [16] it was 9.81 µM (active); in test [17], 3.96 µM (active). The half-maximal activity concentration (AC50) in test [18] was 1.64 µM (active); in test [19], 5.29 µM (active); in the test with A-375, 7.68 µM (active).
On to `CCCCOC(=O)C1=C(C)NC(=O)NC1c1ccc2c(c1)OCO2` (stereo unspecified), for which, in the test on Escherichia coli, the concentration at half-maximal activity (AC50) was 23.6 µM (active).
